Test results reported in patent US6346514B1, “Pharmaceutical lysine-containing polypeptide compositions and methods of use thereof” (priority 1991, dated 2002).

Key:
trypsinized thymocytes = assay: Restoration of rosette-forming capacity (E-RFC) of trypsinized thymocytes; assay type: cell-based, guinea-pig; conditions: concentration 10 microg/ml (most active of 1, 10, 100)
Protocol: Model: A. This work was designed to study the restoration of superficial receptors on lymphocytes after proteolytic digestion or after severe secondary immunodeficiency. Thymocytes obtained from guinea-pig were trypsinized and then their rosette-forming capacity with rabbit erythrocytes (E-RFC) was evaluated. The cells were incubated with the peptide in concentrations 1, 10 and 100 microg/ml. There were two controls—intact thymocytes (not trypsinized) and trypsinized thymocytes not incubated with the peptide.

[1] = tested on: hemodepression induced by 5-fluorouracil; assay: Hemostimulating effect in 5-fluorouracil-induced hemodepression; assay type: in vivo, CBA-mice
Protocol: The test was designed to study hemodepression induced by 5-fluorouracil injected i.p. in a dose 175 mg per kg (172 male CBA-mice). Treatment: peptide HM897 was administered i.p. starting from 4th day after 5-FU injection in doses 0.00001, 0.001, 0.01, 1.0 mg/kg for 5 days. Treatment of controls: normal saline i.p. for 5 days. Tested parameters: peripheral blood count and bone marrow differential count.

[2] = tested on: blood lymphoid cells and immune organs after irradiation; assay: Effect on immune system of irradiated guinea pigs; assay type: in vivo
Protocol: Twenty-two male guinea pigs were used in the following test.
Guinea pigs were exposed to irradiation in a total. does 1Gy.target-skin distance—70 cm; time of exposure—2′48″ Device: 180 kV; 15 mA; filter 0.5 Cu Treatment: i.m. single daily 1 microg. HM897 per kg for 5 days.
Treatment of controls: normal saline 0.5 ml i.m. single daily for 5 days.
Leukocyte and lymphocyte levels were measured in peripheral blood on the 7th, 14th, 21st, 36th and 44th day after irradiation.
In a second test 40 male guinea pigs were used, and the same regimen was followed.
There were two controls—irradiated and non-irradiated. Parameters were evaluated on the 8th and 21st days after irradiation. Tested parameters: clinical blood examination, non-specific resistance by lysosomal cationic test; “active” T-lymphocytes and total T-lymphocytes (E-RFC), B-lymphocytes (EAC-RFC) were measured in blood, thymus, lymph nodes, spleen and red bone marrow. Blood lymphocyte functional activity was evaluated by leukocyte migration inhibition (LMI) with ConA. Histological examinations of thymus, spleen, lymph nodes, bone marrow and adrenals were carried out.

[3] = tested on: methicillin-resistant S. aureus; assay: Survival of mice inoculated with 10xLD50 S. aureus, HM897 pretreatment with or without Ampicillin; assay type: in vivo
Protocol: As in Example 8, animals were inoculated intraperitoneally with 10×LD50 of a methicillin-resistant S. aureus suspended in brain-heart infusion broth containing 5 percent mucin. Different treatments were administered s.c., i.p., or p.o., one hour later and deaths occurring during the subsequent three days were recorded. If significant prevention of mortality (>50 percent survival) was observed, the minimum effective dose (MED) was determined.
Two control experiments were conducted. HM897 was administered as a pretreatment prior to microbial inoculation, and saline was administered i.p. The number of survivors at 72 hours was determined. […] The number of survivors at 72 hours was recorded.
Survival statistics were determined over the periods of 12, 24, 36, 48, and 72 hours. […] Survival statistics were determined over periods of 12, […], 36, 48, and 72 hours. The method of conducting the experiment is illustrated in FIG. 5.

B-lymphocytes = assay: Ig-receptor expression on B-lymphocytes of patients with secondary immunodeficiency; assay type: cell-based, human; conditions: concentration 1 microg/ml
Protocol: The number of cells carrying Ig-receptors before and after incubation with the peptide has been measured (by means for FITC-labelled sera against human Ig).

[4] = tested on: lymphoid cells differentiation; assay: Effects in thymectomized guinea pigs; assay type: in vivo; conditions: thymectomized animals; 1 microg per kg i.m. daily for 10 days; 15th day
Protocol: Model: Thymectomy (removal of thymus): 30 mongrel male guinea pigs. Treatment: i.m. single daily 1 microg HM897 per kg for 10 days. Treatment of controls: normal saline 0.5 ml i.m. single daily for 10 days (there were two controls—thymectomized and sham-operated). Parameters were determined on the 15th day after onset of the treatment. Tested parameters: clinical blood examination, “active” T-lymphocytes and total T-lymphocytes (E-RFC), B-lymphocytes (EAC-RFC) were measured in blood, thymus, lymph nodes, spleen and red bone marrow.

posthemorrhagic anemia = assay: Erythropoietic effect in posthemorrhagic anemia; assay type: in vivo, mice
Protocol: This test was designed to study posthemorrhagic anemia (acute blood loss caused by taking blood from retroorbital sinus), and hemolytic anemia induced by phenylhydrazine hydrochloride (120 mg active ingredients/kg 30 Balb/c-mice and 30 CBA-mice). HM897 was injected intraperitoneally in doses of 100 and 150 microg per kg, 3 hours and 1 day after intervention modelling anemia, for 5 days. Tester parameters: RBC, leukocytes, reticulocytes, Hb, Hct

[5] = 12 HOURS after inoculation, HM897 10 mcg/kg
[6] = 12 HOURS after inoculation, HM897 100 mcg/kg
[7] = 12 HOURS after inoculation, HM897 1000 mcg/kg
[8] = 24 HOURS after inoculation, HM897 10 mcg/kg
[9] = 24 HOURS after inoculation, HM897 100 mcg/kg
[10] = 24 HOURS after inoculation, HM897 1000 mcg/kg
[11] = 36 HOURS after inoculation, HM897 10 mcg/kg
[12] = 36 HOURS after inoculation, HM897 100 mcg/kg
[13] = 36 HOURS after inoculation, HM897 1000 mcg/kg
[14] = 48 HOURS after inoculation, HM897 10 mcg/kg
[15] = 48 HOURS after inoculation, HM897 100 mcg/kg
[16] = 48 HOURS after inoculation, HM897 1000 mcg/kg
[17] = 72 HOURS after inoculation, HM897 10 mcg/kg
[18] = 72 HOURS after inoculation, HM897 100 mcg/kg
[19] = 72 HOURS after inoculation, HM897 1000 mcg/kg

Thr-Ala-Glu-Glu-Lys (TAEEK) [HM897]
biological activity (percentage of rosette-forming capacity restoration) (trypsinized thymocytes): 78/9 | restoration of hemopoiesis ([1]; 5-FU hemodepression, CBA-mice): promotes active restoration of hemopoiesis | dose from which the peptide was active ([1]; i.p. for 5 days from 4th day after 5-FU 175 mg per kg): ≥ 0.001 mg/kg | leukocyte and lymphocyte levels in peripheral blood ([2]; irradiation 1 Gy, 1 microg per kg i.m. daily for 5 days, days 7-44): restoration of leukocyte and lymphocyte levels | peripheral blood lymphocytes and neutrophil functional activity ([2]; second test, irradiated animals): restored peripheral blood lymphocytes and neutrophil functional activity | T-lymphocyte maturation and migration ([2]; second test, irradiated animals, early terms of observation): accelerates T-lymphocyte maturation and their migration to peripheral immune organs | proliferation and differentiation in organs of the immune system ([2]; second test, irradiated animals, later stage of the study): enhancement of proliferation and differentiation in both central and peripheral organs of the immune system | Deaths [3, 5]: 0 | Survival [3, 5]: 100.00% | Survivors [3, 5]: 18 | Deaths [3, 6]: 0 | Survival [3, 6]: 100.00% | Survivors [3, 6]: 18 | Deaths [3, 7]: 1 | Survival [3, 7]: 94.44% | Survivors [3, 7]: 17 | Deaths [3, 8]: 5 | Survival [3, 8]: 72.22% | Survivors [3, 8]: 13 | Deaths [3, 9]: 3 | Survival [3, 9]: 83.33% | Survivors [3, 9]: 15 | Deaths [3, 10]: 2 | Survival [3, 10]: 88.89% | Survivors [3, 10]: 16 | Deaths [3, 11]: 12 | Survival [3, 11]: 33.33% | Survivors [3, 11]: 6 | Deaths [3, 12]: 8 | Survival [3, 12]: 55.56% | Survivors [3, 12]: 10 | Deaths [3, 13]: 7 | Survival [3, 13]: 61.11% | Survivors [3, 13]: 11 | Deaths [3, 14]: 14 | Survival [3, 14]: 22.22% | Survivors [3, 14]: 4 | Deaths [3, 15]: 12 | Survival [3, 15]: 33.33% | Survivors [3, 15]: 6 | Deaths [3, 16]: 11 | Survival [3, 16]: 38.89% | Survivors [3, 16]: 7 | Deaths [3, 17]: 14 | Survival [3, 17]: 22.22% | Survivors [3, 17]: 4 | Deaths [3, 18]: 12 | Survival [3, 18]: 33.33% | Survivors [3, 18]: 6 | Deaths [3, 19]: 11 | Survival [3, 19]: 38.89% | Survivors [3, 19]: 7 | survival after normally lethal i.p. dose of S. aureus ([3]; HM897 pretreatment): dramatic improvement in survival | Survival ([3]; at 36 hours, across HM897 dose groups): ≤ 61% | Survival ([3]; by 72 hours, across HM897 dose groups): 22-39% | cells carrying Ig-receptors of different types (B-lymphocytes): significant increase | lymphoid cells differentiation [4]: does not stimulate lymphoid cells differentiation | Hb level and plasma/formed elements ratio restoration (posthemorrhagic anemia): more rapid | most effective dose (posthemorrhagic anemia; doses 100 and 150 i.p.): 0.15 mg/kg | RBC count (posthemorrhagic anemia; on the 6th day after administration): 7.1 mln/ml
